Measured values: article PMC5796995 (Oncotarget, 2017)

How the values were obtained:
calf thymus DNA = format: biochemical
[1] = format: physicochemical; conditions: pH 7
Procedure: Individual standards of AFB1, AFB2a, and AFB2a-Arg were prepared in deionized water (pH 7) at a concentration of 300 ng/mL each. Aliquots of 300 μL of each aqueous standard were added to 300 μL of 1-octanol. Solutions were shaken at 1800 rpm for 5 min and then allowed to equilibrate for an additional 30 minutes. Aqueous and organic layers for each sample were separated and analyzed by HPLC-MS. Octanol-water partition coefficients (P) were calculated as follows: P=[Peak area in octanol fraction]/[Peak area in aqueous fraction]

Caco-2 monolayers = format: in vitro ADME
Procedure: Assay plates containing 12 wells of 21-day Caco-2 monolayers were provided by MB Biosciences. Monolayer integrity was verified using transepithelial electrical resistance measurements (TEER) prior to assay. Treatment solutions of AFB1, AFB2a, and AFB2a-Arg were prepared in the provided Hank's buffered salt solution (HBSS) with a pH of 7.4 and a final DMSO concentration of 0.2%. Caco-2 monolayers were first rinsed with HBSS and then the apical chamber was filled with 500 μL of test compound solution while the basal chamber was filled with 1500 μL of blank HBSS (both chambers were kept at pH 7.4). Plates were incubated at 37°C for 2 hours to allow compound equilibration. Compound concentration was measured at t = 0 hrs and t = 2 hours by HPLC-MS. Permeability (Papp) was calculated as follows: Papp=dQ/dt×1/A×C0
Where dQ/dt is the amount of translocated material over incubation time (nmol/s), A is the area of the insert (cm^2), and C0 is the initial concentration of the test compound applied. […] ER was calculated as follows: ER=Papp(Basal→Apical)/Papp(Apical→Basal)

HepaRG cells [2] = format: cell-based, human
HepG2 cells [3] = format: cell-based, human
plasma proteins = format: in vitro ADME; conditions: human
HepG2 cells [4] = format: cell-based, human; remark: listed apart in the source
HepaRG cells [5] = format: cell-based, human; remark: listed apart in the source
[6] = test system: hepatic microsomal enzymes; format: in vitro ADME, rat
[7] = test system: Salmonella typhimurium (TA100); format: cell-based

SMILES	DNA adduct formation (calf thymus DNA)	octanol-water partition coefficient [1]	efflux ratio, comparison (Caco-2 monolayers)	intestinal permeability (Papp), comparison (Caco-2 monolayers; pH 7.4)	concentrations that significantly reduced the percentage of viable cells (HepaRG cells [2])	concentrations without increase in micronuclei formation (HepG2 cells [3]) [µM]	number of micronuclei (HepG2 cells [3])	plasma protein bound (plasma proteins) [%]	concentrations that significantly reduced the percentage of viable cells (HepG2 cells [4])	concentrations without increase in micronuclei formation (HepaRG cells [5]) [µM]	number of micronuclei (HepaRG cells [5])	degraded by hepatic microsomal enzymes [6]	number of revertant wells (mutagenic response) [7]
COc1cc(O)c(-c2ccn(C(CCCNC(=N)N)C(=O)O)c2)c2oc(=O)c3c(c12)CCC3=O (stereo not drawn) [AFB2a-Arg, aflatoxin B2a-arginine]	no additional peaks were discovered	lower partition coefficient than AFB1 or AFB2a	significantly higher efflux ratio than AFB1	significantly lower than AFB1	no significant decreases in cell viability	≤ 60	did not show this genotoxic marker	99	no significant decreases in cell viability	≤ 60	did not show this genotoxic marker	not significantly degraded	did not show any significant differences from the vehicle
COc1cc2c(c3oc(=O)c4c(c13)CCC4=O)C1C=COC1O2 (stereo not drawn) [AFB1, aflatoxin B1, reference compound]	presence of DNA adduction				> 3.75 µM		significant increase in the number of micronuclei	82	> 7.5 µM		significant increase in the number of micronuclei	approximately 75%	significant increase in the number of revertant wells
